Assay: Numerical simulations (Comsol Multiphysics) of small-molecule concentration dynamics with porous beads and conical microwells
Settings: 225 μm diameter beads

diffusion coefficient in the bead, Db, corresponding to measured t1/2: 0.125 μm^2/s
SMILES: O=C1OC2(c3ccc(O)cc3Oc3cc(O)ccc32)c2ccccc21 [fluorescein]

— patent US12523646B2, “Device and method for cell-based drug screening” (The Regents of the University of California, priority 2017, dated 2026)
